Source: article PMC12365235, “Molecular mechanisms of thiazide-like diuretics-mediated inhibition of the human Na-Cl cotransporter” (Nature Communications, 2025)

Experiments:
hNCC(G230A) = target: T1, hNCC(G230A) (Homo sapiens, UniProt P55017, G230A); test: 125I- uptake assay, hNCC(G230A) variant; format: cell-based; details: for fold less sensitive than hNCC(WT) / IC50: G230A substitution; for IC50: iodide uptake
T1 construct: expressed in transfected cells
T1 sequence (P55017 1-1021 G230A): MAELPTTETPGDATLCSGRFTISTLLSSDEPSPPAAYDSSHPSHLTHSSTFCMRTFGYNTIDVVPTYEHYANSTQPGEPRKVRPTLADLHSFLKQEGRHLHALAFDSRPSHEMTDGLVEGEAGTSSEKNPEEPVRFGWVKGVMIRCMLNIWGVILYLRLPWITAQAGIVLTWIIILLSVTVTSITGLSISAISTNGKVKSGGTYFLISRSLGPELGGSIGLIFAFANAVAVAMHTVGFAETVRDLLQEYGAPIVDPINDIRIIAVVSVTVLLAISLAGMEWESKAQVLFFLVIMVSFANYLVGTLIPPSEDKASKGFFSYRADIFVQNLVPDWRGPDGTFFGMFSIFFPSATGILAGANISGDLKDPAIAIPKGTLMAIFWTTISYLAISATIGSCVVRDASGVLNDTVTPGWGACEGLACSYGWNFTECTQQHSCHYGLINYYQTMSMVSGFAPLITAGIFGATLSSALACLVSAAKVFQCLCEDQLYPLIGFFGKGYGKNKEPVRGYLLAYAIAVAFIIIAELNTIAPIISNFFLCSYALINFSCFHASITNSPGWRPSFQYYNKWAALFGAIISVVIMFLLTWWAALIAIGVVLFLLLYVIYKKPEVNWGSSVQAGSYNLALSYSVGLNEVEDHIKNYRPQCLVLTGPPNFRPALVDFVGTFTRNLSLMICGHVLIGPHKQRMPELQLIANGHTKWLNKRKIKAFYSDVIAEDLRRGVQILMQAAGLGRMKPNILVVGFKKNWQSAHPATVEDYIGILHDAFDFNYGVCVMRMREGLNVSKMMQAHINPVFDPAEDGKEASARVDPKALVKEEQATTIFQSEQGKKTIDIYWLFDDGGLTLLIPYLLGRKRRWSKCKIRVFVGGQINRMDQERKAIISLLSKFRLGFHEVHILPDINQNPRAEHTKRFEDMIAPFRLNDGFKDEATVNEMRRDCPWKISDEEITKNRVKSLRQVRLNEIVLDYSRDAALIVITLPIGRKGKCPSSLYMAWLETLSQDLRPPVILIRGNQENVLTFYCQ
Experimental: (§1) HEK293S cell lines, cultured in 293 Freestyle medium (Life Technologies; plus 10% fetal bovine serum), stably expressing hNCC and its variants were generated following published protocols. Cells were transfected using Lipofectamine 3000 (Invitrogen) with a pSBbi-RP-based plasmid containing hNCC or its variants and the SB100X vector. Puromycin (2 μg/mL; Gemini Bio-Products) was used for selection of stable cell lines.
(§2) To prepare for the uptake experiment, cells were plated at 0.5 × 10^6 cells/well in 24-well plates one day in advance. To activate NCC, cells were treated with a chloride-free hypotonic solution composed of 67.5 mM sodium-, 2.5 mM potassium-, 0.25 mM magnesium-, and 0.25 mM calcium-gluconate, as well as 7.5 mM HEPES pH 7.4 (buffered using Tris) at 37 °C for 10 min[72]. After the activation step, the experiments were carried out at room temperature. Ten minutes before the start of ^125I^− uptake, 70 μM Bumetanide (Thermo Scientific Chemicals) and 100 μM 4,4′-diisothiocyanatostilbene-2,2′-disulfonic acid (DIDS; Sigma) were added to suppress background iodide uptake activity. Indicated thiazide diuretics were also added to the indicated concentrations 10 min before the start of ^125I^− uptake. The original buffer was switched to an uptake buffer composed of 135 mM Na-gluconate, 5 mM K-gluconate, 1 mM Mg-gluconate, 1 mM Ca-gluconate, 70 μM bumetanide, 100 μM DIDS, 1 mM NaI, 0.25 μCi/ml Na^125I (American Radiolabeled Chemicals, Inc.), and 15 mM HEPES pH 7.4 (buffered using Tris), in the presence or absence of thiazide diuretics to initiate ^125I^− uptake. The ^125I^− uptake process lasted 1 h and was stopped by two rapid washes using ice-cold 110 mM MgCl2. Cells lysed using 1% sodium dodecyl sulfate (SDS) were analyzed by scintillation counting.
(§3) To calculate the fold change of the half-maximal inhibitory concentration (IC50) between hNCC(WT) and different hNCC variants, individual dose-response curves were normalized first using the smallest mean and the value of the lowest concentration as 0% and 100%, respectively. The normalized data were then fitted using the “EC50 shift” nonlinear regression in GraphPad Prism 10 with the shared EC50Control assigned to be the IC50 of hNCC(WT). The following constraints were used in the EC50 shift analysis. The EC50Control was set to be shared across all curves under analysis and constrained to be greater than 0. The EC50Ratio was constrained to be greater than 0. The bottom, top, and HillSlope were constrained to be 0, 100, and −1, respectively. For Fig. 1f, g and Supplementary Fig. 2d, GraphPad Prism 10 was used to perform curve fitting and IC50 calculation for normalized data using y = 100/(1 + (x/IC50)).

hNCC(V231M) = test: 125I- uptake assay, hNCC(V231M) variant; format: cell-based, human; details: V231M polymorphism
Experimental: as §1, §2, §3

| Structure (SMILES) | fold less sensitive than hNCC(WT) (hNCC(G230A)) | IC50 (hNCC(G230A)) [nM] | sensitivity relative to hNCC(WT) (fold lower) (hNCC(V231M)) | inhibition of transport activity (hNCC(G230A); 100 μM polythiazide, G230A) |
| --- | --- | --- | --- | --- |
| NS(=O)(=O)c1cc(C2(O)NC(=O)c3ccccc32)ccc1Cl (stereo not shown) [chlorthalidone] | approximately 40 fold | 930 | 3 fold |  |
| CN1C(CSCC(F)(F)F)Nc2cc(Cl)c(S(N)(=O)=O)cc2S1(=O)=O (stereo not shown) [polythiazide] | ~ 2 fold | 1.4 | nearly as sensitive as the wild-type | fully inhibited |
| CC1Cc2ccccc2N1NC(=O)c1ccc(Cl)c(S(N)(=O)=O)c1 (stereo not shown) [indapamide] | ~ 2 fold | 29 | 2 fold |  |
